Results as given in patent US7456165B2, “HCV NS5B inhibitors” (Bristol-Myers Squibb Company, priority 2006, dated 2008).

Assays:
HCV NS5B = biological target: T1, HCV NS5B (Hepatitis C virus genotype 1b, UniProt Q9WMX2); experiment: HCV NS5B RdRp enzyme assay (preincubation protocol); format: biochemical; settings: HCV NS5B RdRp genotype 1b
T1 construct: The protein was expressed with an 18 amino acid C-terminal truncation to enhance the solubility; made in house; host or cells: E. coli BL21(DE3)
T1 sequence (Q9WMX2 2420-2992): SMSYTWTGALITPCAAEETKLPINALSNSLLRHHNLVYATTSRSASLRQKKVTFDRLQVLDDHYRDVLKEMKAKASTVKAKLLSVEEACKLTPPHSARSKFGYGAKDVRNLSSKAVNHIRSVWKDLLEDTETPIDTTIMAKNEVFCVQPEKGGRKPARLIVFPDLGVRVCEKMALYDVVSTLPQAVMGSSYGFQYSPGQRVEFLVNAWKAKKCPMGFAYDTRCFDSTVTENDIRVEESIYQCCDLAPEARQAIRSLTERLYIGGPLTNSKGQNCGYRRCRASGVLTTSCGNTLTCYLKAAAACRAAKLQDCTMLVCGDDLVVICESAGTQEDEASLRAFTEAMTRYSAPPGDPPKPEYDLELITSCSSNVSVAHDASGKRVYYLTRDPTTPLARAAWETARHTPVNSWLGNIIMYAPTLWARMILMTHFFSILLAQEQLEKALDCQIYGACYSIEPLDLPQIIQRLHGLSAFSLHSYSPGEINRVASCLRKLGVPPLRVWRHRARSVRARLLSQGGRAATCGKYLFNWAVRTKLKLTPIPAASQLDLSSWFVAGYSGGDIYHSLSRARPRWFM
How it was run: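 Preincubation format uses C-terminally truncated (Δ18) NS5B 1b from E. coli at 14 nM, added to compound before polyA template (0.2 nM), 3H-UTP (0.29 μM) and oligo-dT12 primer precaptured on SPA beads (20 nM). Buffer was 20 mM Hepes pH 7.5, 2% DMSO, run 4 h at 30° C. IC50 came from seven concentrations.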

HCV replicon cells = experiment: HCV replicon FRET assay; format: cell-based; settings: Hepatitis C virus
How it was run: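 Huh-7-derived HCV replicon cells (with or without Renilla luciferase reporter) incubated with titrated compound at 37° C. Lysed cells then read by NS3 cleavage of EDANS/DABCYL FRET peptide (20 μM, 340/490 nm, kinetic) or by Dual-Glo luciferase. EC50 is concentration giving 50% signal reduction after protease-inhibitor background subtraction; Alamar blue gives cytotoxicity.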

O=C(O)c1ccc2c(C3CCCCC3)c3n(c2c1)CC(c1nnc(CC2CCOCC2)o1)=Cc1ccccc1-3 [Example 44, 13-cyclohexyl-6-[5-[(tetrahydro-2H-pyran-4-yl)methyl]-1,3,4-oxadiazol-2-yl]-7H-indolo[2,1-a][2]benzazepine-10-carboxylic acid]
IC50 (HCV NS5B): 0.001 to 0.5 µM | EC50 (HCV replicon cells): > 0.5 µM

O=C(O)c1ccc2c(C3CCCCC3)c3n(c2c1)CC(c1ccoc1)=Cc1ccccc1-3 [Example 45, 13-Cyclohexyl-6-(furan-3-yl)-7H-indolo{2,1-a][2]benzazepine-10-carboxylic Acid]
IC50 (HCV NS5B): 0.001 to 0.5 µM | EC50 (HCV replicon cells): > 0.5 µM

COC(=O)CCc1cnc(C2=Cc3cc(OC)ccc3-c3c(C4CCCCC4)c4ccc(C(=O)OC)cc4n3C2)o1 [Example 46, Methyl 13-cyclohexyl-3-methoxy-6-(5-(3-methoxy-3-oxopropyl)-1,3-oxazol-2-yl)-7H-indolo[2,1-a][2]benzazepine-10-carboxylate]
IC50 (HCV NS5B): > 0.5 µM | EC50 (HCV replicon cells): > 0.5 µM

COC(=O)c1ccc2c(C3CCCCC3)c3n(c2c1)CC(c1ncc(CCC(=O)O)o1)=Cc1cc(OC)ccc1-3 [Example 47, 3-(2-(13-Cyclohexyl-3-methoxy-10-(methoxycarbonyl)-7H-indolo[2,1-a][2]benzazepin-6-yl)-1,3-oxazol-5-yl)propanoic acid]
IC50 (HCV NS5B): 0.001 to 0.5 µM | EC50 (HCV replicon cells): > 0.5 µM

COC(=O)c1ccc2c(C3CCCCC3)c3n(c2c1)CC(c1ncc(CCC(=O)N2CCOCC2)o1)=Cc1cc(OC)ccc1-3 [Example 48, Methyl 13-cyclohexyl-3-methoxy-6-(5-(3-(4-morpholinyl)-3-oxopropyl)-1,3-oxazol-2-yl)-7H-indolo[2,1-a][2]benzazepine-10-carboxylate]
IC50 (HCV NS5B): > 0.5 µM | EC50 (HCV replicon cells): > 0.5 µM

COc1ccc2c(c1)C=C(c1ncco1)Cn1c-2c(C2CCCCC2)c2ccc(C(=O)O)cc21 [Example 56, 13-Cyclohexyl-3-methoxy-6-(1,3-oxazol-2-yl)-7H-indolo[2,1-a][2]benzazepine-10-carboxylic acid]
IC50 (HCV NS5B): 0.001 to 0.5 µM | EC50 (HCV replicon cells): > 0.5 µM

COc1ccc2c(c1)C=C(c1ncco1)Cn1c-2c(C2CCCCC2)c2ccc(C(=O)NS(=O)(=O)N(C)C)cc21 [Example 57, 13-Cyclohexyl-N-((dimethylamino)sulfonyl)-3-methoxy-6-(1,3-oxazol-2-yl)-7H-indolo[2,1-a][2]benzazepine-10-carboxamide]
IC50 (HCV NS5B): 0.001 to 0.5 µM | EC50 (HCV replicon cells): 0.001 to 0.5 µM

COc1ccc2c(c1)CC(c1ncco1)Cn1c-2c(C2CCCCC2)c2ccc(C(=O)NS(=O)(=O)N(C)C)cc21 (stereo not shown) [Example 58, 13-Cyclohexyl-N-((dimethylamino)sulfonyl)-3-methoxy-6-(1,3-oxazol-2-yl)-6,7-dihydro-5H-indolo[2,1-a][2]benzazepine-10-carboxamide]
IC50 (HCV NS5B): 0.001 to 0.5 µM | EC50 (HCV replicon cells): 0.001 to 0.5 µM
